Results as given in PubChem BioAssay (NCI).
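Cells were grown in 96-well plates and exposed to each compound for 48 hours at five concentrations; endpoints were interpolated linearly between bracketing concentrations, or set to the highest concentration if not reached. The concentration for 50% growth inhibition is given as GI50. TGI marks complete inhibition of growth.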

How the values were obtained:
Experiment in all cases: NCI tumour cell line growth inhibition, 48 h
EKVX NSCLC = tested on: EKVX NSCLC
SN12C renal = tested on: SN12C renal
U251 CNS = tested on: U251 CNS
HT29 colon = tested on: HT29 colon
COLO 205 colon = tested on: COLO 205 colon
IGROV1 ovarian = tested on: IGROV1 ovarian
SW-620 colon = tested on: SW-620 colon
PC-3 prostate = tested on: PC-3 prostate
K-562 leukemia = tested on: K-562 leukemia
MALME-3M melanoma = tested on: MALME-3M melanoma

Compound | TGI (EKVX NSCLC) | TGI (SN12C renal) | TGI (U251 CNS) | TGI (HT29 colon) | TGI (COLO 205 colon) | TGI (IGROV1 ovarian) | TGI (SW-620 colon) | TGI (PC-3 prostate) | TGI (K-562 leukemia) | TGI (MALME-3M melanoma) | GI50 (EKVX NSCLC) | GI50 (SN12C renal) | GI50 (U251 CNS) | GI50 (HT29 colon) | GI50 (COLO 205 colon) | GI50 (IGROV1 ovarian) | GI50 (SW-620 colon) | GI50 (PC-3 prostate) | GI50 (K-562 leukemia) | GI50 (MALME-3M melanoma)
C=C(Br)C(C)(Br)CCC(Br)C(C)(C)Cl (stereo not drawn) | 51.3 µM | 39.5 µM | 29.7 µM | 40.7 µM | 33.8 µM | 18.3 µM | 30.4 µM | 36.3 µM | > 47.5 µM | 39.3 µM | – | – | – | – | – | – | – | – | – | –
CCN1CCN(c2nc(C)cc(N(CCNc3ccnc4cc(Cl)ccc34)Cc3ccc4c(c3)OCO4)n2)CC1 | 13.9 µM | 8.27 µM | 3.12 µM | 4.83 µM | 3.27 µM | 7.78 µM | 3.55 µM | 13.4 µM | 2.76 µM | 3.44 µM | 3.14 µM | 2.58 µM | 1.56 µM | 1.83 µM | 1.63 µM | 2.36 µM | 1.62 µM | 3.22 µM | 0.913 µM | 1.84 µM
Cc1cc(I)cc(CN(C)CCCN2CCCCC2)c1O | 37.3 µM | > 100 µM | 33.4 µM | 16.1 µM | 27.3 µM | 32.5 µM | 27.7 µM | 32.9 µM | 23.1 µM | 42.3 µM | 16.3 µM | 49.9 µM | 15.7 µM | 4.46 µM | 13.7 µM | 15.4 µM | 14.6 µM | 15.4 µM | 11.1 µM | 21.7 µM
Cc1cc(-c2ccc3nc(C4CCOCC4)n(CCOC(F)(F)F)c3c2)cn(C)c1=O | > 100 µM | 31.1 µM | – | > 63.1 µM | 2.97 µM | 6.91 µM | 33.3 µM | – | – | 5.16 µM | 0.761 µM | 1.22 µM | 1.02 µM | – | – | – | 1.79 µM | 1.04 µM | 0.507 µM | –
CCN(CC)/C(SCc1ccccc1)=C(\C(Cl)=C(Cl)Cl)[N+](=O)[O-] | 56.4 µM | 42.4 µM | 49 µM | 81.7 µM | 38.9 µM | 33.8 µM | 50.4 µM | 47.1 µM | > 100 µM | 21.8 µM | – | – | – | – | – | – | – | – | – | –
CCOC(=O)c1cc2nc3ccccc3c(=O)n2c2ccccc12 | > 10 µM | > 10 µM | > 10 µM | > 10 µM | > 10 µM | > 10 µM | > 10 µM | > 10 µM | > 10 µM | > 10 µM | – | – | – | – | – | – | – | – | – | –
